In the supplement of paper PMC10733146:

Columns and labels:
Experiment in all cases: viability relative to DMSO control (fraction); higher = less drug effect (more viable cells)
Conditions in all cases: 48 h
[1] = compound: CN(C)C(=O)c1cc2cnc(Nc3ccc(N4CCNCC4)cn3)nc2n1C1CCCC1 [Ribociclib]
In short: (§1)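 Viability was quantified by CellTiter-Glo luminescence and related to the median of 16 inner DMSO wells. Before that, primary mononuclear tumour cells, fresh or cryopreserved and Ficoll-isolated from blood or bone marrow or prepared from processed lymph node, were plated at 4 × 10^4 cells per well in 384-well plates containing pre-plated compounds at five concentrations, one well each. Plates were incubated in RPMI-1640 with penicillin/streptomycin, L-glutamine and human serum at 37 °C and 5% CO2 for 48 h.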

[2] = compound: C#CCC(Cc1cnc2nc(N)nc(N)c2n1)c1ccc(C(=O)N[C@@H](CCC(=O)O)C(=O)O)cc1 [Pralatrexate]
In short: as §1

[3] = compound: CC[C@H](NC(=O)[C@H](C)NC)C(=O)N1C[C@@H](O)C[C@H]1Cc1c(-c2[nH]c3cc(F)ccc3c2C[C@@H]2C[C@H](O)CN2C(=O)[C@H](CC)NC(=O)[C@H](C)NC)[nH]c2cc(F)ccc12 [Birinapant]
In short: as §1

[4] = compound: O=C(CCCCCCC(=O)Nc1ccccc1)NO [Vorinostat]
In short: as §1

[5] = compound: Cc1cc(Nc2cc(N3CCN(C)CC3)nc(Sc3ccc(NC(=O)C4CC4)cc3)n2)n[nH]1 [Tozasertib]
In short: as §1

[6] = compound: C1=N/C2=N/c3ccc(OCCN4CCCC4)c(c3)COC/C=C/COCc3cccc(c3)C(=C1)N2 [Pacritinib]
In short: as §1

[7] = compound: COC1=CC(c2cc3ccccc3[nH]2)=N/C1=C\c1[nH]c(C)cc1C [Obatoclax mesylate]
In short: as §1

[8] = compound: CC[C@]1(O)C[C@H]2CN(CCc3c([nH]c4ccccc34)[C@@](C(=O)OC)(c3cc4c(cc3OC)N(C=O)[C@H]3[C@@](O)(C(=O)OC)[C@H](OC(C)=O)[C@]5(CC)C=CCN6CC[C@]43[C@@H]65)C2)C1 [Vincristine]
In short: as §1

[9] = compound: Cc1cn(-c2cc(NC(=O)c3ccc(C)c(Nc4nccc(-c5cccnc5)n4)c3)cc(C(F)(F)F)c2)cn1 [Nilotinib]
In short: as §1

[10] = compound: NC(=O)Nc1cc(-c2cccc(F)c2)sc1C(=O)N[C@H]1CCCNC1 [AZD7762]
In short: as §1

[11] = compound: OCc1ccc(-c2ccc(-c3ccc(CO)s3)o2)s1
In short: as §1

[12] = compound: CC(C)C[C@H](NC(=O)[C@H](CCc1ccccc1)NC(=O)CN1CCOCC1)C(=O)N[C@@H](Cc1ccccc1)C(=O)N[C@@H](CC(C)C)C(=O)[C@@]1(C)CO1 [Carfilzomib]
In short: as §1

[13] = compound: CCOc1cc(C(=O)N2CCC(N3CCN(C)CC3)CC2)ccc1Nc1ncc2c(n1)N(C1CCCC1)c1ccccc1C(=O)N2C [ERK5-IN-1]
In short: as §1

[14] = compound: COc1c(Cl)cc2c([nH]c3cnccc32)c1NC(=O)c1cccnc1C [MLN-120B]
In short: as §1

primary DLBCL patient cells (S082)
viability ([1]; 0.024 µM): 0.925 | viability ([1]; 0.12 µM): 0.946 | viability ([1]; 0.6 µM): 0.935 | viability ([1]; 3 µM): 0.938 | viability ([1]; 15 µM): 1.02 | viability ([2]; 0.024 µM): 1.02 | viability ([2]; 0.12 µM): 1.15 | viability ([2]; 0.6 µM): 0.992 | viability ([2]; 3 µM): 1.08 | viability ([2]; 15 µM): 1.05 | viability ([3]; 0.0008 µM): 0.923 | viability ([3]; 0.004 µM): 1.04 | viability ([3]; 0.02 µM): 1.12 | viability ([3]; 0.1 µM): 1.09 | viability ([3]; 0.5 µM): 1.06 | viability ([4]; 0.016 µM): 1.01 | viability ([4]; 0.08 µM): 0.914 | viability ([4]; 0.4 µM): 0.636 | viability ([4]; 2 µM): 0.0663 | viability ([4]; 10 µM): 0.0248 | viability ([5]; 0.024 µM): 0.94 | viability ([5]; 0.12 µM): 0.892 | viability ([5]; 0.6 µM): 0.821 | viability ([5]; 3 µM): 0.618 | viability ([5]; 15 µM): 0.364 | viability ([6]; 0.024 µM): 0.963 | viability ([6]; 0.12 µM): 0.972 | viability ([6]; 0.6 µM): 0.916 | viability ([6]; 3 µM): 0.543 | viability ([6]; 15 µM): 0.0168 | viability ([7]; 0.024 µM): 0.989 | viability ([7]; 0.12 µM): 1.34 | viability ([7]; 0.6 µM): 1.58 | viability ([7]; 3 µM): 1.41 | viability ([7]; 15 µM): 0.681 | viability ([8]; 0.016 µM): 0.609 | viability ([8]; 0.08 µM): 0.561 | viability ([8]; 0.4 µM): 0.474 | viability ([8]; 2 µM): 0.446 | viability ([8]; 10 µM): 0.396 | viability ([9]; 0.016 µM): 1.06 | viability ([9]; 0.08 µM): 1.04 | viability ([9]; 0.4 µM): 1.09 | viability ([9]; 2 µM): 1.08 | viability ([9]; 10 µM): 1.11 | viability ([10]; 0.024 µM): 0.76 | viability ([10]; 0.12 µM): 0.417 | viability ([10]; 0.6 µM): 0.122 | viability ([10]; 3 µM): 0.152 | viability ([10]; 15 µM): 0.125 | viability ([11]; 0.024 µM): 0.929 | viability ([11]; 0.12 µM): 1.02 | viability ([11]; 0.6 µM): 0.84 | viability ([11]; 3 µM): 0.904 | viability ([11]; 15 µM): 0.622 | viability ([12]; 0.00016 µM): 0.895 | viability ([12]; 0.0008 µM): 1.01 | viability ([12]; 0.004 µM): 0.0334 | viability ([12]; 0.02 µM): 0.018 | viability ([12]; 0.1 µM): 0.0218 | viability ([13]; 0.024 µM): 0.854 | viability ([13]; 0.12 µM): 0.818 | viability ([13]; 0.6 µM): 0.621 | viability ([13]; 3 µM): 0.265 | viability ([13]; 15 µM): 0.224 | viability ([14]; 0.024 µM): 0.845 | viability ([14]; 0.12 µM): 0.83 | viability ([14]; 0.6 µM): 0.856 | viability ([14]; 3 µM): 0.819 | viability ([14]; 15 µM): 0.717

primary FL patient cells (S022)
viability ([1]; 0.024 µM): 1.01 | viability ([1]; 0.12 µM): 1.01 | viability ([1]; 0.6 µM): 1.02 | viability ([1]; 3 µM): 0.941 | viability ([1]; 15 µM): 0.737 | viability ([2]; 0.024 µM): 1 | viability ([2]; 0.12 µM): 0.996 | viability ([2]; 0.6 µM): 1 | viability ([2]; 3 µM): 1.04 | viability ([2]; 15 µM): 1.02 | viability ([3]; 0.0008 µM): 0.862 | viability ([3]; 0.004 µM): 0.874 | viability ([3]; 0.02 µM): 0.965 | viability ([3]; 0.1 µM): 0.884 | viability ([3]; 0.5 µM): 0.903 | viability ([4]; 0.016 µM): 0.992 | viability ([4]; 0.08 µM): 0.932 | viability ([4]; 0.4 µM): 0.874 | viability ([4]; 2 µM): 0.795 | viability ([4]; 10 µM): 0.26 | viability ([5]; 0.024 µM): 0.996 | viability ([5]; 0.12 µM): 0.882 | viability ([5]; 0.6 µM): 0.949 | viability ([5]; 3 µM): 0.807 | viability ([5]; 15 µM): 0.814 | viability ([6]; 0.024 µM): 0.96 | viability ([6]; 0.12 µM): 1.09 | viability ([6]; 0.6 µM): 0.998 | viability ([6]; 3 µM): 0.429 | viability ([6]; 15 µM): 0.0378 | viability ([7]; 0.024 µM): 1.04 | viability ([7]; 0.12 µM): 0.971 | viability ([7]; 0.6 µM): 0.71 | viability ([7]; 3 µM): 0.486 | viability ([7]; 15 µM): 0.109 | viability ([8]; 0.016 µM): 0.479 | viability ([8]; 0.08 µM): 0.448 | viability ([8]; 0.4 µM): 0.377 | viability ([8]; 2 µM): 0.349 | viability ([8]; 10 µM): 0.255 | viability ([9]; 0.016 µM): 0.974 | viability ([9]; 0.08 µM): 1.1 | viability ([9]; 0.4 µM): 0.985 | viability ([9]; 2 µM): 0.933 | viability ([9]; 10 µM): 1.03 | viability ([10]; 0.024 µM): 0.724 | viability ([10]; 0.12 µM): 0.79 | viability ([10]; 0.6 µM): 0.725 | viability ([10]; 3 µM): 0.785 | viability ([10]; 15 µM): 0.655 | viability ([11]; 0.024 µM): 0.946 | viability ([11]; 0.12 µM): 1.05 | viability ([11]; 0.6 µM): 0.969 | viability ([11]; 3 µM): 1.02 | viability ([11]; 15 µM): 0.512 | viability ([12]; 0.00016 µM): 0.875 | viability ([12]; 0.0008 µM): 0.117 | viability ([12]; 0.004 µM): 0.0482 | viability ([12]; 0.02 µM): 0.0455 | viability ([12]; 0.1 µM): 0.0491 | viability ([13]; 0.024 µM): 1.02 | viability ([13]; 0.12 µM): 0.957 | viability ([13]; 0.6 µM): 0.902 | viability ([13]; 3 µM): 0.951 | viability ([13]; 15 µM): 0.544 | viability ([14]; 0.024 µM): 0.946 | viability ([14]; 0.12 µM): 0.96 | viability ([14]; 0.6 µM): 0.916 | viability ([14]; 3 µM): 0.896 | viability ([14]; 15 µM): 0.758
